# Values quoted from earlier work in patent publication US12290596B2, “Compositions and methods for the treatment of opioid overdose” (priority 2021, dated 2025).
# Settings: intranasal formulation with […] Intravail; cited from earlier work
compound,measurement,value
CNS(=O)(=O)Cc1ccc2[nH]cc(CCN(C)C)c2c1 [sumatriptan],Increase of maximum plasma concentration in comparison to Imitrex nasal spray,almost four-fold
same,Increase of total exposure (AUC),32%
same,Tmax,8 to 10 min
